≈ marks a conversion by molar mass, not a printed value. Where “and” joins values, the source holds several entries; their conditions need not be identical. Equal values may be shown once. Read-outs that look alike come from different tables or passages of the source.
Legend:
[1] = biological target: endogenous BCL6 in OCI-Ly1 cells (Homo sapiens, UniProt P41182); assay: cell-based; conditions: for degradation of BCL6 (in words): OCI-Ly1 MSD assay; for MSD degrader assay [OCI-Ly1] Dmax: mean maximal degradation of BCL6; for MSD degrader assay [OCI-LY1] pDC50 mean: mean of replicates
[2] = Microsomal clearance assay (MLM); format: in vitro ADME; conditions: female, CD1, pH 7.4; mouse liver microsomes, 1 μM compound
Procedure: 6. Supplementary experimental: in vitro DMPK assays
6.1 Microsomal clearance assay
Microsomal clearance was determined in female CD1 mice, female Sprague–Dawley rats, and mixed gender human liver microsomes obtained from BioIVT (Peterborough, U.K.) following incubation of 1 μM compound at 37 °C in 0.5 mg/mL microsomal protein, 3 mmol/L MgCl2, 1 mmol/L NADPH, 2.5 mmol/L and 10 mmol/L phosphate buffer (pH 7.4) (all purchased from Sigma-Aldrich, Gillingham, U.K). Reactions were started by addition of the cofactors following 10 min preincubation of microsomes with test compound and were terminated at −1, 0, 5, 10, 15, and 30 min with three volumes of ice-cold methanol containing internal standard. Samples were centrifuged at 2800g for 30 min at 4 °C and the supernatants analyzed.
Control incubations were prepared as above with omission of cofactors. Compound measurements were […]
separation with a 3 min gradient of 0.1% formic acid in methanol on a Kinetex C18, 50 × 2.1 mm 2.6 μm UPLC column (Phenomenex, Macclesfield, UK). […]

[3] = logD7.4 assay (Chrom log D method); format: physicochemical; conditions: reversed-phase HPLC on Phenomenex Luna C8 column, pH 7.4, read-out: Measured logD7.4
Procedure: Calibration, validation and in-house compounds were prepared at 1mM in 10% DMSO / 90% Trizma solution (100mM Trizma in 75/25 methanol/water). 3 µL standard injections (with needle wash) of all calibration, validation and in-house samples were made onto a Phenomenex Luna C8 column (3µm, 100 x 4.6 mm, 100A, Phenomenex, Torrence, USA). Chromatographic separation at 30°C was carried out using […]
2 mL/min. The gradient was held at 0:100 water:organic for 0.8 minutes, then returned to the starting conditions of 95:5 water:organic for 0.2 minutes. The column was re-equilibrated for 5 minutes at the […]

NMR solubility assay = format: physicochemical; conditions: kinetic solubility by NMR in HEPES buffer at pH 8, 4% DMSO; read-out: Aq. Sol.
Procedure: 4. Supplementary experimental: physicochemical assays
0.5 mM TCEP, 10% D2O) was pipetted into the same well and mixed by up-down pipetting 3 times to create […]
It was then separated by centrifugation (1000 rpm
The plate was then sealed and incubated at room temperature for 20 hours, […]
165 µL of the supernatant was transferred to a 3 mm NMR tube (Bruker, Part No. Z112272) using liquid handler SamplePro Tube SJ S (Bruker). The concentration of the solubilized compound in solubility sample is measured by quantitative 1H-NMR using a single external standard (200 µM caffeine (Sigma, C1778) in PBS (pH 7.4) with 1% DMSO-d6).
The detail of the NMR method is as following: NMR data was collected on a Bruker Avance Neo 600 spectrometer equipped with a 5 mm TCI-CryoProbe. The 1H spectrum was referenced to the internal deuterated solvent. The operating frequency for 1H was 600 MHz. All NMR data were acquired at the […]
1H-NMR spectrum was acquired using a Bruker standard 1D lc1pngppsf2 pulse sequence with 32 scans.
The sweep width was 6.2 ppm with O1P set to 8.8 ppm, and the FID contained 16k time-domain data points. Relaxation delay was set to 20 sec. Water signal was suppressed. […]

human BCL6 BTB domain [4] = biological target: T1, human BCL6 BTB domain (Homo sapiens, UniProt P41182); conditions: for BCL6 TR-FRET pIC50 mean: mean of replicates
Procedure: (§1) Assays were performed in a 384-well black Proxiplate (Perkin Elmer) containing 1 nM Trx-6xHis-BCL6 (in
(§2) anti-6xHis-Terbium cryptate (CisBio Bioassays, France), in assay buffer (25 mM Hepes pH8, 100 mM NaCl,
(§3) 0.05% Tween20, 0.5 mM TCEP, 0.05% bovine serum albumin). Test compounds in DMSO or DMSO alone
(§4) were added to the wells using an ECHO550 acoustic dispenser (Labcyte Inc) to give the appropriate test
(§5) concentration in 0.7% v/v DMSO final. After 2 hours incubation at room temperature the plate was read
(§6) The % inhibition at each concentration was calculated by normalising FRET ratio to the
(§7) appropriate high (DMSO with all reagents) and low (DMSO without BCL6) controls. IC50 values were
(§8) determined using GraphPad Prism 6.0 or Dotmatics (Bishops Stortford, UK) software by fitting the
(§9) normalised data to a sigmoidal four-parameter logistic fit equation.

human BCL6 BTB domain [5] = biological target: T1, human BCL6 BTB domain; assay: biochemical
Procedure: as §1, §2, §3, §4, §5, §6, §7, §8, §9

[6] = OCI-Ly1, read-out: MSD degrader assay [OCI-LY1] Dmax individual replicates, single replicate values
[7] = OCI-Ly1, read-out: MSD degrader assay [OCI-Ly1] Dmax, mean maximal degradation of BCL6, OCI-Ly1 cells, 2 h
[8] = read-out: MSD degrader assay [OCI-LY1] DC50 individual replicates, single replicate values
[9] = read-out: MSD degrader assay [OCI-Ly1] DC50, geometric mean, OCI-Ly1 cells, 2 h incubation
[10] = read-out: BCL6 TR-FRET IC50, geometric mean, BCOR-AF633 peptide, 2 h incubation
[11] = BCL6 TR-FRET IC50 individual replicates, single replicate values
[12] = read-out: BCL6 TR-FRET IC50 individual replicates, single replicate values

Row | SMILES | Dmax [1, 6] | Dmax [1, 7] | degradation of BCL6 (in words) [1] | MSD degrader assay [OCI-Ly1] Dmax ([1]; OCI-Ly1 cells, 2 h) | MSD degrader assay [OCI-LY1] pDC50 mean [1] | DC50 [1, 8] | DC50 [1, 9] | MSD degrader assay [OCI-LY1] Dmax individual replicates ([1]; single replicate values) | microsomal CLint at 0.5 h, 1 µM [2] | chromatographic logD [3] | solubility kinetic at 20 h (NMR solubility assay) | BCL6 TR-FRET pIC50 mean (human BCL6 BTB domain [4]) | IC50 (human BCL6 BTB domain [4]; [10]) | IC50 (human BCL6 BTB domain [5]; [11]) | IC50 (human BCL6 BTB domain [4]; [12]) | IC50 (human BCL6 BTB domain [5]; BCL6 TR-FRET IC50, geometric mean, BCOR-AF633 peptide, 2 h incubation) | IC50 (human BCL6 BTB domain [5]; BCL6 TR-FRET pIC50 mean, mean of replicates)
1 | Cn1c(=O)c2c(c3cc(Nc4nc(N5CCC(F)(F)[C@@H](O)C5)ncc4Cl)ccc31)N[C@@H](C1CC1)C(F)(F)CO2 (single isomer, unassigned) [8a] | 60.5% | 59.6% | potently degrading isomer | 60% | 8.1499 | 4.3 nM and 11.6 nM and 7.1 nM | 7.1 nM | 50.7% and 67.5% | 53 µL/min/mg | 3 | 11 µM (≈ 6.26 µg/mL) | 8.4571 | 3.5 nM | 3.2 nM and 3.3 nM and 4 nM | – | – | –
2 | Cn1c(=O)c2c(c3cc(Nc4nc(N5CCC(F)(F)[C@H](O)C5)ncc4Cl)ccc31)N[C@@H](C1CC1)C(F)(F)CO2 (single isomer, unassigned) [8b] | < 30% | < 30% | nondegrading isomer | > 30% | – | > 2000 nM | > 2000 nM | – | 22 µL/min/mg | 3 | 13 µM (≈ 7.4 µg/mL) | 8.3342 | 4.6 nM | – | 4.8 nM and 4.7 nM and 4.4 nM | – | –
3 | Cn1c(=O)c2c(c3cc(Nc4nc(N5CCC(F)(F)[C@H](CO)C5)ncc4Cl)ccc31)N[C@@H](C1CC1)C(F)(F)CO2 [9b, (S)-10-((5-Chloro-2-((S)-4,4-difluoro-3-(hydroxymethyl)piperidin-1-yl)pyrimidin-4-yl)amino)-2-cyclopropyl-3,3-difluoro-7-methyl-1,2,3,4-tetrahydro-[1,4]oxazepino[2,3-c]quinolin-6(7H)-one] | – | 44.7% | partial degradation | ~45% | – | > 2000 nM | > 2000 nM | 56.1% and 58.2% and 19.9% | 129 µL/min/mg | 3.2 | 6.8 µM (≈ 3.96 µg/mL) | 8.3907 | 4.1 nM | 3.4 nM and 3.8 nM and 5 nM | 4.2 nM | – | –
4 | CC(=O)N[C@@H]1C[C@H](C)CN(c2ncc(Cl)c(Nc3ccc4c(c3)c3c(c(=O)n4C)OCC(F)(F)[C@H](C4CC4)N3)n2)C1 [10a, N-((3R,5S)-1-(5-Chloro-4-(((S)-2-cyclopropyl-3,3-difluoro-7-methyl-6-oxo-1,2,3,4,6,7-hexahydro-[1,4]oxazepino[2,3-c]quinolin-10-yl)amino)pyrimidin-2-yl)-5-methylpiperidin-3-yl)acetamide] | 72.4% | – | potently degrading isomer | 67% | 8.6565 | 1.7 nM and 2.8 nM | 2.2 nM | 61.63% | 138 µL/min/mg | 2.8 | 15 µM (≈ 8.82 µg/mL) | 8.4394 | 3.6 nM | 3.4 nM and 4.4 nM and 3.2 nM | – | – | –
5 | C[C@@H]1C[C@@H](O)CN(c2ncc(Cl)c(Nc3ccc4c(c3)c3c(c(=O)n4C)OCC(F)(F)[C@H](C4CC4)N3)n2)C1 [13a, (S)-10-((5-Chloro-2-((3R,5R)-3-hydroxy-5-methylpiperidin-1-yl)pyrimidin-4-yl)amino)-2-cyclopropyl-3,3-difluoro-7-methyl-1,2,3,4-tetrahydro-[1,4]oxazepino[2,3-c]quinolin-6(7H)-one] | < 30% | < 30% | nondegraders of BCL6 | > 30% | – | > 2000 nM | > 2000 nM | – | 78 µL/min/mg | 3 | – | 8.0053 | 9.9 nM | 11.4 nM and 8.6 nM | 9.9 nM | – | –
6 | C[C@H]1C[C@H](O)CN(c2ncc(Cl)c(Nc3ccc4c(c3)c3c(c(=O)n4C)OCC(F)(F)[C@H](C4CC4)N3)n2)C1 [13b, (S)-10-((5-Chloro-2-((3S,5S)-3-hydroxy-5-methylpiperidin-1-yl)pyrimidin-4-yl)amino)-2-cyclopropyl-3,3-difluoro-7-methyl-1,2,3,4-tetrahydro-[1,4]oxazepino[2,3-c]quinolin-6(7H)-one] | < 30% | < 30% | nondegraders of BCL6 | > 30% | – | > 2000 nM | > 2000 nM | – | 446 µL/min/mg | 3.1 | – | 8.2236 | 6 nM | 4.9 nM and 6.4 nM and 6.8 nM | – | – | –
7 | Cn1c(=O)c2c(c3cc(Nc4nc(N5CCC[C@H](O)C5)ncc4Cl)ccc31)N[C@@H](C1CC1)C(F)(F)CO2 [14b, (S)-10-((5-chloro-2-((S)-3-hydroxypiperidin-1-yl)pyrimidin-4-yl)amino)-2-cyclopropyl-3,3-difluoro-7-methyl-1,2,3,4-tetrahydro-[1,4]oxazepino[2,3-c]quinolin-6(7H)-one] | < 30% | < 30% | none was seen | > 30% | – | > 2000 nM | > 2000 nM | – | 139 µL/min/mg | – | 23 µM (≈ 12.3 µg/mL) | – | 2.5 nM | 3.1 nM (2×) and 3.2 nM and 2.9 nM | 2.6 nM | 3 nM | 2.98 nM
8 | Cn1c(=O)n(CCC(C)(C)O)c2cc(Nc3nc(N4CCC(F)(F)C(O)C4)ncc3Cl)ccc21 (stereo not shown) [compound 3, 5-((5-Chloro-2-(4,4-difluoro-3-hydroxypiperidin-1-yl)pyrimidin-4-yl)amino)-3-(3-hydroxy-3-methylbutyl)-1-methyl-1,3-dihydro-2H-benzo[d]imidazol-2-one] | 81% | 77.5% | – | 78% | 6.5593 | 246 nM and 310 nM | 276 nM | 74.1% | 35 µL/min/mg | 2.3 | 11 µM (≈ 5.47 µg/mL) | 6.6241 | 238 nM | – | 227 nM and 247 nM and 239 nM | – | –
9 | Cn1c(=O)n(CCC(C)(C)O)c2cc(Nc3nc(N4CCC(F)(F)C(CO)C4)ncc3Cl)ccc21 (stereo not shown) [compound 4, 5-((5-Chloro-2-(4,4-difluoro-3-(hydroxymethyl)piperidin-1-yl)pyrimidin-4-yl)amino)-3-(3-hydroxy-3-methylbutyl)-1-methyl-1,3-dihydro-2H-benzo[d]imidazol-2-one] | – | – | – | – | – | – | – | – | – | 2.5 | 294 µM (≈ 150 µg/mL) | – | – | – | – | – | –
